Assay: Scavenging activity of compound (superoxide radicals generated by the oxidation of xanthine and xanthine oxidase),expressed as the percent quenching of luminescence of lucigenin at 50 nM concentration
With `O=C1/C(=C/c2ccccc2)CC/C1=C\c1ccccc1` the Free radical scavenging was 10%. Compound `O=C1/C(=C/c2ccccc2)CCC/C1=C\c1ccccc1` has a Free radical scavenging of 11%. For `O=C1/C(=C/c2ccccc2)CCCC/C1=C\c1ccccc1`, the Free radical scavenging was 11%. `COc1cc(/C=C2\CCC/C(=C\c3ccc(O)c(OC)c3)C2=O)ccc1O` showed a Free radical scavenging of 30%. In the case of `COc1ccccc1/C=C1\CCC/C(=C\c2ccccc2OC)C1=O`, the Free radical scavenging is reported as 19%. `O=C1/C(=C/c2ccccc2O)CCC/C1=C\c1ccccc1O` gave a Free radical scavenging of 42%. `O=C1/C(=C/c2ccccc2O)CC/C1=C\c1ccccc1O` showed a Free radical scavenging of 70%.
